Experimental data reported in patent US20260085082A1, “KDM1A INHIBITORS FOR THE TREATMENT OF DISEASE” (Imago Biosciences, Inc., priority 2022, published 2026).
Read-outs that look alike come from different tables or passages of the source.

How the values were obtained:
[1] = system: MV4;11 cells; assay: Cell Titer-Glo Luminescent Cell Viability Assay, cell growth inhibition against MV4;11 cells; type: cell-based; settings: Homo sapiens
Description: Cell growth inhibition against MV4;11 cells was confirmed for the synthetic compounds. The Cell Titer-Glo Luminescent Cell Viability Assay (Promega, USA) was used to determine the number of viable cells in culture based on quantitation of the ATP present, which signals the presence of metabolically active cells. This assay was run in a 96-well plate format arrayed in a 10-point dose curve, ranging from 0 to 50 μM with 4-fold dilutions for each compound. Cells are seeded on Day 0 at 3750 cells per well. At Day 5, a portion of each well is assayed for viability according to the Cell Titer-Glo protocol. Briefly, cells/plates were centrifuged at 1100×g for 5 minutes. 100 μL of media was removed from each well and replaced with 100 μL of CellTiter-Glo. The plates were shaken at room temperature for 10 minutes and measured on a luminescence plate reader. Another portion of each well from the Day 5 plate is used to seed a new 96 plate containing fresh compound and media set up in the equivalent 10-point dose curve array in order to continue the cell growth inhibition assay for another 5 days. A final timepoint is collected at Day 10 using the Cell Titer-Glo protocol. Luminescence was detected on an EnVision® Multilabel Plate Reader (Perkin Elmer, Waltham, Mass.) and IC50 determination was made using Graph Pad Prism software.

[2] = biological target: LSD1 (Homo sapiens, UniProt O60341); assay: LSD1 10-dose IC50 fluorescence coupling enzyme assay (HRP/Amplex Red, resorufin); type: biochemical; settings: 10 M histone H3(1-21)K4me2 peptide substrate; 3-fold serial dilution in duplicate starting at 100 μM
Description: Compounds were tested in a 10-dose IC50 mode fluorescence coupling enzyme assay with 3-fold serial dilution in duplicate starting at 100 μM. The production of FAD-dependent H2O2 as a result of demethylase activity of LSD1 on […] histone H3(1-21)K4me2 peptide substrate was measured by coupling with HRP and Amplex Red to yield resorufin (fluorescence measured at Ex/Em=535/590 nm on EnVision, Perkin Elmer).

[3] = MV4-11, 120 h, MV4;11 cells, Day 5, 10-point dose curve 0 to 50 μM, read-out: Cell Titer Glo IC50 (5 d)
[4] = MV4-11, MV4;11 cells, Day 10 (re-seeded at Day 5 with fresh compound), 10-point dose curve 0 to 50 μM, read-out: Cell Titer Glo IC50 (10 d)

Compound	IC50 [1, 3]	IC50 [2]	IC50 [1, 4]
CN1CCN(c2ccc(-n3nc(C(=O)N4CCC[C@@H](N)C4)cc3-c3ccc(C#N)c(F)c3)cc2)CC1 [Example 60, (R)-4-(3-(3-aminopiperidine-1-carbonyl)-1-(4-(4-methylpiperazin-1-yl)phenyl)-1H-pyrazol-5-yl)-2-fluorobenzonitrile]	500 to 1000 nM	< 500 nM	< 500 nM
N#Cc1ccc(-c2cc(C(=O)N3CCC[C@@H](N)C3)nn2-c2ccc(N3CCS(=O)(=O)CC3)cc2)cc1F [Example 71, (R)-4-(3-(3-aminopiperidine-1-carbonyl)-1-(4-(1,1-dioxidothiomorpholino)phenyl)-1H-pyrazol-5-yl)-2-fluorobenzonitrile 2,2,2-trifluoroacetate]		< 500 nM	< 500 nM
Cn1cc2cc(-n3nc(C(=O)N4CCCC(N)C4)cc3-c3ccc(C#N)c(F)c3)ccc2n1 (stereo not drawn) [Example 40, 4-(3-(3-Aminopiperidine-1-carbonyl)-1-(2-methyl-2H-indazol-5-yl)-1H-pyrazol-5-yl)-2-fluorobenzonitrile]	< 500 nM	< 500 nM	
N#Cc1ccc(-c2cc(C(=O)N3CCC[C@@H](N)C3)nn2-c2ccc(N3CCCC3)cc2)cc1F [Example 62, (R)-4-(3-(3-aminopiperidine-1-carbonyl)-1-(4-(pyrrolidin-1-yl)phenyl)-1H-pyrazol-5-yl)-2-fluorobenzonitrile 2,2,2-trifluoroacetate]		< 500 nM	< 500 nM
COc1ccc(-n2nc(C(=O)N3CCC[C@H](N)C3)cc2-c2ccc(C#N)c(F)c2)cc1F [Example 37, (S)-4-(3-(3-aminopiperidine-1-carbonyl)-1-(3-fluoro-4-methoxyphenyl)-1H-pyrazol-5-yl)-2-fluorobenzonitrile]	1000 to 10000 nM	500 to 1000 nM	
COc1ccc(-n2nc(NC(=O)[C@@H]3CCC[C@@H](N)C3)cc2-c2ccc(C#N)c(F)c2)cc1 [Example 89, (1R,3R)-3-amino-N-(5-(4-cyano-3-fluorophenyl)-1-(4-methoxyphenyl)-1H-pyrazol-3-yl)cyclohexane-1-carboxamide 2,2,2-trifluoroacetate]	1000 to 10000 nM	< 500 nM	
N#Cc1ccc(-c2cc(C(=O)N3CCC[C@@H](N)C3)nn2-c2ccc(-c3ccc4c(c3)OCCO4)cc2)cc1F [Example 85, (R)-4-(3-(3-aminopiperidine-1-carbonyl)-1-(4-(2,3-dihydrobenzo[b][1,4]dioxin-6-yl)phenyl)-1H-pyrazol-5-yl)-2-fluorobenzonitrile 2,2,2-trifluoroacetate]		< 500 nM	< 500 nM
COc1ccc(-n2nc(NC(=O)[C@H]3CCC[C@H](N)C3)cc2-c2ccc(C#N)c(F)c2)cc1 [Example 90, (1S,3S)-3-amino-N-(5-(4-cyano-3-fluorophenyl)-1-(4-methoxyphenyl)-1H-pyrazol-3-yl)cyclohexane-1-carboxamide 2,2,2-trifluoroacetate]	1000 to 10000 nM	< 500 nM	
COc1ccc(-n2nc(C(=O)NC3CCNC3)cc2-c2ccc(C#N)c(F)c2)cc1 (stereo not drawn) [Example 21, 5-(4-Cyano-3-fluorophenyl)-1-(4-methoxyphenyl)-N-(pyrrolidin-3-yl)-1H-pyrazole-3-carboxamide]	1000 to 10000 nM	500 to 1000 nM	
COc1ccc(-n2nc(C(=O)N[C@@H]3CCC[C@H](N)C3)cc2-c2ccc(C#N)c(F)c2)cc1 [Example 28, N-((1R,3S)-3-aminocyclohexyl)-5-(4-cyano-3-fluorophenyl)-1-(4-methoxyphenyl)-1H-pyrazole-3-carboxamide 2,2,2-trifluoroacetate]	1000 to 10000 nM	500 to 1000 nM	
COc1ccc(-n2nc(NC(=O)C3CCNCC3)cc2-c2ccc(C#N)c(F)c2)cc1 [Example 92, N-(5-(4-cyano-3-fluorophenyl)-1-(4-methoxyphenyl)-1H-pyrazol-3-yl)piperidine-4-carboxamide 2,2,2-trifluoroacetate]	1000 to 10000 nM	500 to 1000 nM	
Cc1cc(CCn2nc(C(=O)N3CCC[C@H](N)C3)cc2-c2ccc(C#N)c(F)c2)on1 [Example 39, (S)-4-(3-(3-aminopiperidine-1-carbonyl)-1-(2-(3-methylisoxazol-5-yl)ethyl)-1H-pyrazol-5-yl)-2-fluorobenzonitrile]	> 10000 nM	> 10000 nM	
Cn1ncc2cc(-n3nc(C(=O)N4CCC[C@@H](N)C4)cc3-c3ccc(C#N)c(F)c3)ccc21 [Example 43, (R)-4-(3-(3-aminopiperidine-1-carbonyl)-1-(1-methyl-1H-indazol-5-yl)-1H-pyrazol-5-yl)-2-fluorobenzonitrile 2,2,2-trifluoroacetate]		< 500 nM	< 500 nM

Continued, in another order:

IC50 [1, 3]	IC50 [2]	Compound	IC50 [1, 4]
> 10000 nM	1000 to 10000 nM	COc1ccc(-n2nc(C(=O)N3CCCC(NC(=N)N)C3)cc2-c2ccc(C#N)c(F)c2)cc1 (stereo not drawn) [Example 29, 1-(1-(5-(4-Cyano-3-fluorophenyl)-1-(4-methoxyphenyl)-1H-pyrazole-3-carbonyl)piperidin-3-yl)guanidine 2,2,2-trifluoroacetate]	
	< 500 nM	CN1CCN(c2ccc(-n3nc(-c4ccc(C#N)c(F)c4)cc3C(=O)N3CCC[C@@H](N)C3)cc2)CC1 [Example 58, (R)-4-(5-(3-aminopiperidine-1-carbonyl)-1-(4-(4-methylpiperazin-1-yl)phenyl)-1H-pyrazol-3-yl)-2-fluorobenzonitrile 2,2,2-trifluoroacetate]	< 500 nM
< 500 nM	< 500 nM	Cc1ccc(-n2nc(C(=O)N3CCC[C@@H](N)C3)cc2-c2ccc(C#N)c(F)c2)cc1 [Example 11, (R)-4-(3-(3-Aminopiperidine-1-carbonyl)-1-(p-tolyl)-1H-pyrazol-5-yl)-2-fluorobenzonitrile]	< 500 nM
< 500 nM	< 500 nM	Cc1ccc(-n2nc(C(=O)N3CCCC(N)C3)cc2-c2ccc(C#N)c(F)c2)cc1 (stereo not drawn) [Example 6, 4-(3-(3-Aminopiperidine-1-carbonyl)-1-(p-tolyl)-1H-pyrazol-5-yl)-2-fluorobenzonitrile]	
< 500 nM	< 500 nM	COc1ccc(-n2nc(C(=O)N3CCC[C@@H](N)C3)cc2-c2ccc(C#N)c(F)c2)cc1F [Example 36, (R)-4-(3-(3-aminopiperidine-1-carbonyl)-1-(3-fluoro-4-methoxyphenyl)-1H-pyrazol-5-yl)-2-fluorobenzonitrile]	
1000 to 10000 nM	500 to 1000 nM	Cc1ccc(-n2nc(-c3ccc(C#N)c(F)c3)cc2C(=O)NC2CCNC2)cc1 (stereo not drawn) [Example 15, 3-(4-Cyano-3-fluorophenyl)-N-(pyrrolidin-3-yl)-1-(p-tolyl)-1H-pyrazole-5-carboxamide]	
1000 to 10000 nM	500 to 1000 nM	COc1ccc(-n2nc(C(=O)N[C@H]3CCC[C@@H](N)C3)cc2-c2ccc(C#N)c(F)c2)cc1 [Example 22, N-((1S,3R)-3-aminocyclohexyl)-5-(4-cyano-3-fluorophenyl)-1-(4-methoxyphenyl)-1H-pyrazole-3-carboxamide]	
< 500 nM	< 500 nM	COc1ccc(-n2nc(C(=O)N3CCC[C@H](N)C3)cc2-c2ccc(C#N)c(F)c2)cc1 [Example 19, (S)-4-(3-(3-Aminopiperidine-1-carbonyl)-1-(4-methoxyphenyl)-1H-pyrazol-5-yl)-2-fluorobenzonitrile]	< 500 nM
	< 500 nM	N#Cc1ccc(-c2cc(C(=O)N3CCC[C@@H](N)C3)nn2-c2ccc(N3CCC(OCCCO)CC3)cc2)cc1F [Example 69, (R)-4-(3-(3-Aminopiperidine-1-carbonyl)-1-(4-(4-(3-hydroxypropoxy)piperidin-1-yl)phenyl)-1H-pyrazol-5-yl)-2-fluorobenzonitrile 2,2,2-trifluoroacetate]	< 500 nM
1000 to 10000 nM	1000 to 10000 nM	COc1ccc(-n2nc(C(=O)NC3CCCC(N)C3)cc2-c2ccc(C#N)c(F)c2)cc1 (stereo not drawn) [Example 20, N-(3-aminocyclohexyl)-5-(4-cyano-3-fluorophenyl)-1-(4-methoxyphenyl)-1H-pyrazole-3-carboxamide 2,2,2-trifluoroacetate]	
1000 to 10000 nM	< 500 nM	CN1CCN(c2ccc(-n3nc(C(=O)N4CCC[C@H](N)C4)cc3-c3ccc(C#N)c(F)c3)cc2)CC1 [Example 59, (S)-4-(3-(3-aminopiperidine-1-carbonyl)-1-(4-(4-methylpiperazin-1-yl)phenyl)-1H-pyrazol-5-yl)-2-fluorobenzonitrile]	< 500 nM
1000 to 10000 nM	500 to 1000 nM	Cc1ccc(-n2nc(C(=O)NC3CCNC3)cc2-c2ccc(C#N)c(F)c2)cc1 (stereo not drawn) [Example 10, 5-(4-Cyano-3-fluorophenyl)-N-(pyrrolidin-3-yl)-1-(p-tolyl)-1H-pyrazole-3-carboxamide]	
